Results taken from patent US10364226B2, “Pyridazinone compounds and uses thereof” (priority 2013, dated 2019).

Assays:
[1] = test system: Influenza strain A549 A/WSN/33 (H1N1); experiment: Influenza Antiviral Assay; assay type: cell-based, Influenza A virus; conditions: Influenza A virus, A549, 20 h, neuraminidase fluorescence readout, read-out: % Inhibition
[2] = molecular target: EN PA (Influenza A virus, UniProt P15659); experiment: EN PA FRET Inhibition Assay; assay type: biochemical; conditions: read-out: Potency

SMILES | EC50 [1] | IC50 [2]
Cc1cn(C2(Cn3cc(O)c(=O)c(C(=O)NCc4ccc(F)c(Cl)c4)n3)CCCC2)c2ncccc12 [Compound 757] | < 20 µM | < 0.1 µM
O=C(NC1CC1)c1nn(CC2(n3cc(C(F)(F)F)c4cccnc43)CCCC2)cc(O)c1=O [Compound 682] | < 20 µM | < 0.1 µM
CNC(=O)c1nn(CC2(n3cc(C)c4cccnc43)CCC2)cc(O)c1=O [Compound 814] | < 20 µM | < 0.1 µM
COc1cccc(CNC(=O)c2nn(CC3(c4cccc(C(F)(F)F)c4)CCCC3)cc(O)c2=O)c1 [Compound 624] | < 20 µM | 0.1 to 1 µM
O=C(O)c1nn(-c2ccccc2N2CCCCC2)cc(O)c1=O [Compound 11] | > 100 µM | 0.1 to 1 µM
O=C(O)c1nn(-c2ccccc2OC(F)(F)F)cc(O)c1=O [Compound 21] | > 100 µM | < 0.1 µM
CNC(=O)c1nn(CC2(n3cc(C)c4ccccc43)CCCC2)cc(O)c1=O [Compound 740] | < 20 µM | < 0.1 µM
CNC(=O)c1nn(-c2ccccc2-c2cc(OC)ccc2Cl)cc(O)c1=O [Compound 612] | 20 to 100 µM | ≥ 1 µM
C=Cc1ccc(C2(Cn3cc(O)c(=O)c(C(=O)NC)n3)CCCC2)cc1 [Compound 762] | < 20 µM | < 0.1 µM
O=C(O)c1nn(CCc2ccccc2C(F)(F)F)cc(O)c1=O [Compound 400, 1-(2-(trifluoromethyl)phenethyl)-1,4-dihydro-5-hydroxv-4-oxopyridazine-3-carboxylic acid] | > 100 µM | < 0.1 µM
CNC(=O)c1nn(CC2(c3cccc(-c4ccccc4)c3)CCCC2)cc(O)c1=O [Compound 674] | < 20 µM | < 0.1 µM
CNC(=O)c1nn(CC2(c3cc(C)c4cccnc4c3)CCCC2)cc(O)c1=O [Compound 888] | < 20 µM | < 0.1 µM
O=C(NCC1CC1)c1nn(CC2(c3cccc(C(F)(F)F)c3)CCCC2)cc(O)c1=O [Compound 510] | < 20 µM | 0.1 to 1 µM
CNC(=O)c1nn(CCC(c2ccccc2)c2ccccc2)cc(O)c1=O [Compound 837] | > 100 µM | 0.1 to 1 µM
CNC(=O)c1nn(CCn2c3ccccc3c3ccccc32)cc(O)c1=O [Compound 835] | > 100 µM | 0.1 to 1 µM
CNC(=O)c1nn(CC2(c3cccc(C(F)(F)F)c3)CCCC2)cc(O)c1=O [Compound 511] | < 20 µM | 0.1 to 1 µM
O=C(O)c1nn(CCCc2ccccc2)cc(O)c1=O [Compound 402] | > 100 µM | 0.1 to 1 µM
O=C(NCc1ccccc1)c1nn(CC2(c3ccc(F)c(F)c3)CCCC2)cc(O)c1=O [Compound 812] | < 20 µM | < 0.1 µM
CNC(=O)c1nn(CCN(c2ccccc2)c2ccccc2)cc(O)c1=O [Compound 834] | > 100 µM | 0.1 to 1 µM
O=C(O)c1nn(-c2ccccc2-c2ccccc2)cc(O)c1=O [Compound 18] | > 100 µM | 0.1 to 1 µM
CNC(=O)c1nn(CC2(c3c[nH]c4ccccc34)CCCC2)cc(O)c1=O [Compound 831] | > 100 µM | 0.1 to 1 µM
O=C(NCc1ccncc1)c1nn(CC2(c3ccccc3)CCCC2)cc(O)c1=O [Compound 692] | < 20 µM | < 0.1 µM

SMILES | EC50 [1] | IC50 [2]
Cc1cn(C2(Cn3cc(O)c(=O)c(C(=O)NC(C)(C)C)n3)CCCC2)c2ncccc12 [Compound 792] | < 20 µM | < 0.1 µM
O=C(O)c1nn(CC2(c3ccccc3)CCCC2)cc(O)c1=O [Compound 410] | < 20 µM | < 0.1 µM
CNC(=O)c1nn(-c2ccccc2-c2cccc(OC)c2)cc(O)c1=O [Compound 611] | > 100 µM | ≥ 1 µM
CC1(C)CCC(Cn2cc(O)c(=O)c(C(=O)NCc3ccc(F)c(Cl)c3)n2)(c2ccccc2)C1 (stereo not drawn) [Compound 797] | < 20 µM | 0.1 to 1 µM
O=C(NCc1ccccc1)c1nn(CC2(c3cncnc3)CCCC2)cc(O)c1=O [Compound 832] | > 100 µM | < 0.1 µM
CNC(=O)c1nn(CC2(n3cc(Cl)c4cc(Cl)ccc43)CCCC2)cc(O)c1=O [Compound 899] | < 20 µM | < 0.1 µM
CNC(=O)c1nn(CC2(c3cccc(Cl)c3)CCCC2)cc(O)c1=O [Compound 700] | < 20 µM | < 0.1 µM
CNC(=O)c1nn(CC2(n3cc(Br)c4cccnc43)CCCC2)cc(O)c1=O [Compound 680] | < 20 µM | < 0.1 µM
CC(C)C1CCN(c2ccccc2-n2cc(O)c(=O)c(C(=O)O)n2)CC1 [Compound 207] | 20 to 100 µM | 0.1 to 1 µM
O=C1NCCCCCc2ccc3ccn(c3c2)C2(CCCC2)Cn2cc(O)c(=O)c1n2 [Compound 826] | < 20 µM | < 0.1 µM
CC(C)(CO)NC(=O)c1nn(CC2(n3cc(Cl)c4cccnc43)CCCC2)cc(O)c1=O [Compound 866] | < 20 µM | < 0.1 µM
CS(=O)(=O)Nc1cccc(-n2cc(O)c(=O)c(C(=O)O)n2)c1 [Compound 17] | > 100 µM | 0.1 to 1 µM
NC(=O)c1nn(CC2(c3cccc(C(F)(F)F)c3)CCCC2)cc(O)c1=O [Compound 602] | < 20 µM | 0.1 to 1 µM
CNC(=O)c1nn(CC2(n3cc(C)c4cccnc43)CCCC2)cc(OC(=O)C(C)(C)C)c1=O [Compound 679] | < 20 µM | < 0.1 µM
O=C(O)c1nn(-c2ccccc2-c2ccccc2-c2ccccc2)cc(O)c1=O [Compound 35] | < 20 µM | < 0.1 µM
O=C(NCc1ccc2c(c1)OCO2)c1nn(CC2(c3cccc(C(F)(F)F)c3)CCCC2)cc(O)c1=O [Compound 625] | < 20 µM | 0.1 to 1 µM
CCOC(=O)c1nn(CC2(c3ccccc3)CCCC2)cc(O)c1=O [Compound 411] | < 20 µM | 0.1 to 1 µM
Cc1ccc(C(C)(C)Cn2cc(O)c(=O)c(C(=O)O)n2)cc1 [Compound 416] | 20 to 100 µM | < 0.1 µM
CNC(=O)c1nn(CC2(n3ccc4c(C)ccnc43)CCCC2)cc(O)c1=O [Compound 864] | < 20 µM | < 0.1 µM
Cc1cn(C2(Cn3cc(O)c(=O)c(C(=O)NCCNC(=O)OC(C)(C)C)n3)CCCC2)c2ncccc12 [Compound 876] | < 20 µM | < 0.1 µM
CC1(C)CC(Cn2cc(O)c(=O)c(C(=O)O)n2)(c2ccccc2)C1 [Compound 785] | > 100 µM | < 0.1 µM
CCNC(=O)c1nn(CC2(n3cc(Cl)c4cccnc43)CCCC2)cc(O)c1=O [Compound 753] | < 20 µM | < 0.1 µM

SMILES | EC50 [1] | IC50 [2]
CNC(=O)c1nn(CC2(n3ccc4cc(Cl)cnc43)CCCC2)cc(O)c1=O [Compound 818] | < 20 µM | < 0.1 µM
O=C(NCc1ccc(Cl)cc1)c1nn(CC2(c3cccc(C(F)(F)F)c3)CCCC2)cc(O)c1=O [Compound 523] | < 20 µM | 0.1 to 1 µM
O=C(NC1CC1)c1nn(CC2(c3ccccc3)CCCC2)cc(O)c1=O [Compound 676] | < 20 µM | < 0.1 µM
O=C(O)c1nn(CC2(c3cccc(C(F)(F)F)c3)CC2)cc(O)c1=O [Compound 424] | 20 to 100 µM | 0.1 to 1 µM
CNC(=O)c1nn(CC2(c3ccc4ncccc4c3)CCCC2)cc(O)c1=O [Compound 845] | < 20 µM | < 0.1 µM
CNC(=O)c1nn(CC2(n3cc(C)c4cccnc43)CCCC2)cc(OC(=O)OC(C)(C)C)c1=O [Compound 789] | < 20 µM | < 0.1 µM
CNC(=O)c1nn(CC2(n3cc(C)c4cccnc43)CCCCC2)cc(O)c1=O [Compound 788] | < 20 µM | < 0.1 µM
CCn1cc(CNC(=O)c2nn(CC3(c4cccc(C(F)(F)F)c4)CCCC3)cc(O)c2=O)cn1 [Compound 650] | < 20 µM | < 0.1 µM
O=C1NCC/C=C/Cc2ccc3c(C(=O)C(F)(F)F)cn(c3c2)C2(CCCC2)Cn2cc(O)c(=O)c1n2 [Compound 836] | > 100 µM | ≥ 1 µM
CNC(=O)c1nn(CC2(n3cc(C)c4cccnc43)C[C@@H]3[C@@H](CO)[C@@H]3C2)cc(O)c1=O (stereo partly drawn) [Compound 885] | > 100 µM | 0.1 to 1 µM
CNC(=O)c1nn(-c2ccccc2-c2ccc(CC(C)C)cc2)cc(O)c1=O [Compound 501] | < 20 µM | ≥ 1 µM
CNC(=O)c1nn(CC2(n3cc(C(F)(F)F)c4cccnc43)CCCC2)cc(OC(=O)C(C)(C)C)c1=O [Compound 695] | < 20 µM | < 0.1 µM
CNC(=O)c1nn(CC2(c3ccc4cnccc4c3)CCCC2)cc(O)c1=O [Compound 844] | < 20 µM | < 0.1 µM
CNC(=O)c1nn(CC2(c3cc(C(F)(F)F)cc(C(F)(F)F)c3)CCCC2)cc(O)c1=O [Compound 506] | < 20 µM | 0.1 to 1 µM
CNC(=O)c1nn(CC(c2ccccc2)C2CCCC2)cc(O)c1=O (stereo not drawn) [Compound 658] | > 100 µM | 0.1 to 1 µM
NC(=O)c1nn(CC2(n3cc(Cl)c4cccnc43)CCCC2)cc(O)c1=O [Compound 758] | < 20 µM | < 0.1 µM
Cc1cn(C2(Cn3cc(O)c(=O)c(C(=O)N4CCC4)n3)CCCC2)c2ncccc12 [Compound 773] | < 20 µM | < 0.1 µM
CNC(=O)c1nn(CC2(c3cc(C)c4ncccc4c3)CCCC2)cc(O)c1=O [Compound 846] | < 20 µM | < 0.1 µM
C#Cc1cn(C2(Cn3cc(O)c(=O)c(C(=O)NC)n3)CCCC2)c2ncc(C)cc12 [Compound 875] | < 20 µM | < 0.1 µM
NC(=O)c1nn(CC2(c3ccccc3)CCCC2)cc(O)c1=O [Compound 708] | < 20 µM | < 0.1 µM
CNC(=O)c1nn(-c2ccccc2S(=O)(=O)c2cccc(Cl)c2)cc(O)c1=O [Compound 644] | > 100 µM | 0.1 to 1 µM
CCC(NC(=O)c1nn(CC2(c3cccc(C(F)(F)F)c3)CCCC2)cc(O)c1=O)C(F)(F)F (stereo not drawn) [Compound 500, 5-hydroxy-4-oxo-N-(1,1,1-trifluorobutan-2-yl)-1-((1-(3-(trifluoromethyl)phenyl)cyclopentyl)methyl)-1,4-dihydropyridazine-3-carboxamide] | < 20 µM | 0.1 to 1 µM
